Laboratory results: paper PMC10182601, “Biological evaluation of novel gemcitabine analog in patient-derived xenograft models of pancreatic cancer” (BMC Cancer, 2023)
Counter-ions that a name gives are not always drawn.

Legend:
PPCL-192 cells = test: Cell migration (wound) assay, PPCL-192; format: cell-based, human; settings: PPCL-192, 5 µM, 48 h
Protocol: A cell migration assay was conducted to determine the effect of 4NSG-SLN on PPCL-192 and PPCL-46 cell motility. The Ibidi cell culture inserts were used to grow the cells into two confluent monolayers separated by a "wound" for this assay. The cells were seeded into 24-well plates at a cell density of 2.5 × 10^5, 48 h at 37 °C. At 75% confluency, cells formed adherent monolayers on either side of the tissue culture insert. Before treatment, the cells were serum-starved by replacing complete media with base media (DMEM) and then further incubated for 48 h. After serum starvation, the inserts were gently removed to generate a gap or "wound" between the two confluent layers of cells, and the monolayers were washed with experimental media. Afterward, cells were exposed to 5 μM concentration of GemHCl and 4NSG-SLN treatments. Images of the cells invading the wound were then captured after 48 h with a Nikon Ti Eclipse microscope.

[1] = Pharmacokinetic study in mice (i.v. bolus); format: in vivo; settings: single i.v. bolus, Gem equivalent (b110 prints 20 mg/kg)
Protocol: For pharmacokinetic (PK) studies, normal healthy mice were grouped into control, GemHCl, and 4NSG-SLN. […] After the injection, aliquots of blood samples were collected at predetermined time points (5, 10, 15, 30, 60, 120, 240, 360, 720, and 1440 min). Blood samples collected were treated with 2 mL of an extraction solvent (15% of isopropyl alcohol in ethyl acetate). The mixture was vortexed for 30 s and centrifuged at 3,000 rpm for 15 min, and the supernatant was collected and vaporized to dry overnight in a water bath. Residual solvent was removed by placing the dried samples in vacuum chamber.
Five hundred microliters (500 uL) of mobile phase solution was used to reconstitute the dried sample (mobile phase solution was made up of 5% acetonitrile in 10 mM dihydrogen phosphate buffer, pH adjusted to 3). The sample solution was centrifuged at 3,000 rpm for 15 min, supernatant collected and filtered, and samples analyzed for Gem using HPLC. The PK parameters were determined using PKSolver software.
To determine the concentration of Gem, supernatant from mouse plasma was spiked with aliquots of 0.5 μg/ml of Gem. The chromatographic analysis was performed according to the method described with minor modifications. The samples were collected using supernatants (10µL), aliquots of control (spiked), and mouse plasma. The chromatographic system consisted of an HPLC (Agilent Technologies, 1290 infinity) equipped with an auto-sampler, diode array detector (DAD), and pumps. Separation was performed using a reverse phase column (Zobrax Rapid Resolution High Definition (RRHD) Eclipse plus C18, 2.1 × 50 mm, 1.8 µm). A flow rate of 250 µL/min and injection volume of 10 μL at ambient temperature was maintained at 25 ± 1 °C while detection was performed at 268 nm. Before analysis, the reverse phase column was equilibrated with a mobile phase of 5% acetonitrile in 10 mM dihydrogen phosphate buffer, pH adjusted to 2.5 with trifluoroacetic acid (TFA). Isocratic elution was performed throughout the entire analysis, including internal standards. A calibration curve was prepared using Gem standard solutions with a concentration range of 0.063–2.0 μg/mL. A plot of the peak areas as a function of Gem concentration was plotted, and the linear equation of the calibration curve given as y = mx + c was determined, where y is the peak area, m is the slope, x is the concentration of Gem, and c is the y—intercept.

[2] = tested on: PCa PDX tumor from Black patients; test: Tumor efficacy in PDX mice bearing tumors from Black PCa patients; format: in vivo; settings: 30 mg/kg Gem equivalent i.v. twice weekly for 3 weeks
Source text: The implantation of surgical tumor tissue into immuno-compromised mice was described previously. A viable portion of resected tissue 2 × 2 mm in size was briefly isolated immediately from surgically resected primary PCa specimens (from Blacks and White patients) with care to minimize critical ischemia time. The PCa tissues were then implanted subcutaneously into an 8-week-old mouse (The Jackson Laboratory, Bar Harbor, ME). The xenografts were allowed to grow to a maximum diameter of 1.5 cm before passage and in vitro culture.
Mice-bearing surgically implanted tumors obtained from Black and White patients with sizes of 70–100 mm^3 were randomized into groups as control, GemHCl, and 4NSG-SLN (n = 5/group). Baseline tumor volume was established, and dosing initiation began on day 1 with intravenous administration of 30 mg/kg Gem (twice weekly for 3 weeks) with an equivalent dose of GemHCl and 4NSG-SLN [42]. Once tumors became palpable, their volume was measured thrice per week, and the mice's weight was recorded twice weekly. Tumor volumes were measured using digital calipers and calculated using the following equation: V = (L*(W)^2)/2, where V is the volume (mm^3), W(width) is the smaller of two perpendicular tumor axes, and the L (length) is the larger of two vertical axes. Mean tumor volume growth curves were calculated for each treatment group.

VEGFR = test: Immunohistochemistry of PDX tumor tissue, VEGFR; format: in vivo, mice; settings: for VEGF % Moderate Positive Cells / VEGF % Positive / VEGF % Weak Positive Cells / VEGF H Score / VEGF % Strong Positive Cells: IHC
Protocol: [The source words this procedure for another target and reports this target under the same test.] Tissue samples from mice bearing tumors from Black and White PCa patients post treatments with GemHCl and 4NSG-SLN were excised and immediately washed with PBS, fixed (10% buffered formalin) for 24 h, and transferred to 70% ethanol for histopathological analysis. Histology was performed by HistoWiz Inc. (Histowiz.com) according to manufacturer protocol. Samples were embedded in paraffin, and 4 μm sections were prepared. Immunohistochemistry was performed on a Bond Rx autostainer (Leica Biosystems) with enzyme treatment (1:1000) using standard protocols (https://home.histowiz.com/faq/). Samples were incubated overnight with primary antibodies (Antibodies used were rat monoclonal F4/80 primary antibody (eBioscience, 14–4801, and 1:200), and immunohistochemical staining was done using rabbit anti-rat secondary (Vector Labs, 1:100). Bond Polymer Refine Detection was used per the manufacturer's protocol (Leica Biosystems). After staining, sections were dehydrated and filmed, coverslipped using a Tissue-Tek Prisma coverslip (Sakura). Whole slide scanning (40x) was performed on an Aperio AT2 (Leica Biosystems).

[3] = BT PDX tumor tissue after treatment
[4] = WT PDX tumor tissue after treatment

clearance ([1]; mouse, plasma, iv, read-out: Cl (clearance) (converted)): 0.355 mL/min | Vd ([1]; mouse, plasma, iv, read-out: Vd (volume of distribution)): 0.0217 ± 0.0019 L | k el ([1]; mouse, plasma, iv, read-out: k10 (elimination rate constant) (converted)): 0.000281 s⁻¹ | half-life ([1]; mouse, plasma, iv, read-out: t1/2 (half-life) (converted)): 42 ± 0.6 min | AUC(0-t) [1]: 28.2 ± 4.3 µg·h/mL
Compound: Nc1ccn([C@@H]2O[C@H](CO)[C@@H](O)C2(F)F)c(=O)n1 [GemHCl, Gemcitabine hydrochloride]
Number of cells migrated (PPCL-192 cells): 84 ± 3.1 | Mean terminal tumor volume ([2]; day 1, BT PDX mice): 12.5 ± 6 mm^3 | Mean terminal tumor volume ([2]; day 3, BT PDX mice): 25.0 ± 12 mm^3 | Mean terminal tumor volume ([2]; day 5, BT PDX mice): 35.7 ± 18 mm^3 | Mean terminal tumor volume ([2]; day 7, BT PDX mice): 73.0 ± 21 mm^3 | Mean terminal tumor volume ([2]; day 11, BT PDX mice): 662. ± 198 mm^3 | Mean terminal tumor volume ([2]; day 13, BT PDX mice): 767. ± 194 mm^3 | Mean terminal tumor volume ([2]; day 15, BT PDX mice): 911. ± 152 mm^3 | Mean terminal tumor volume ([2]; day 17, BT PDX mice): 990. ± 151 mm^3 | Mean terminal tumor volume ([2]; day 19, BT PDX mice): 1129 ± 172 mm^3 | Mean terminal tumor volume ([2]; day 21, BT PDX mice): 1204 ± 184 mm^3 | Mean terminal tumor volume ([2]; day 23, BT PDX mice): 1456 ± 154 mm^3 | Mean terminal tumor volume ([2]; day 25, BT PDX mice): 1681 ± 172 mm^3 | VEGF % Moderate Positive Cells (VEGFR; [3]): 0.6 ± 0.2% | VEGF % Positive (VEGFR; [3]): 27 ± 0.4% | VEGF % Weak Positive Cells (VEGFR; [3]): 1.2 ± 0.3% | VEGF H Score (VEGFR; [3]): 4.7 | VEGF % Strong Positive Cells (VEGFR; BT PDX tumor tissue after treatment, first line of this name (r21)): 0.5 ± 0.1% | VEGF % Strong Positive Cells (VEGFR; BT PDX tumor tissue after treatment, second line of this name (r22)): 70.7 ± 7.8% | VEGFR expression in representative IHC images (VEGFR; BT and WT PDX tumor tissues, 40X): moderate to high | VEGF % Moderate Positive Cells (VEGFR; [4]): 0.6 ± 0.1% | VEGF % Positive (VEGFR; [4]): 30 ± 1.4% | VEGF % Weak Positive Cells (VEGFR; [4]): 0.7 ± 0.3% | VEGF H Score (VEGFR; [4]): 10.0 | VEGF % Strong Positive Cells (VEGFR; WT PDX tumor tissue after treatment, first line of this name (r21)): 0.7 ± 0.3% | VEGF % Strong Positive Cells (VEGFR; WT PDX tumor tissue after treatment, second line of this name (r22)): 68 ± 3.8%
